A value given as a limit tells only on which side of the number the result lay.

Among the data in paper PMC4975031, “A multifunctional GH39 glycoside hydrolase from the anaerobic gut fungus Orpinomyces sp. strain C1A” (PeerJ, 2016) are Km, activity and Vmax values, retold here.

Series [1] addresses T1, Bgxg1 (Pecoramyces ruminantium, UniProt A0A0U3AYH9).
T1 construct: codon-optimised fragment, 939 bp [sic], nucleotide positions 67-1,035 of transcript m.21910 (signal peptide predicted in full-length product)
Briefly: p-nitrophenol release, Lineweaver-Burk. Particulars: pH 6.0, sodium acetate buffer, 39 °C; printed BDL (below detection limit, 500 nM). In kind it is biochemical. The source says: (§1) p-nitrophenol release, Lineweaver-Burk on Bgxg1

For series [2], the target named is T1, Bgxg1. The series can be described thus: substrate competition: PNPG hydrolysis in presence of xylobiose. Format: biochemical. The conditions noted are these: read-out: Relative specific activity (%). The text has this: substrate competition: PNPG hydrolysis in presence of xylobiose on Bgxg1
In series [3] the test system is T2, O=[N+]([O-])c1ccc(O[C@@H]2OC[C@@H](O)[C@H](O)[C@H]2O)cc1.
T2 construct: codon-optimised fragment, 939 bp [sic], nucleotide positions 67-1,035 of transcript m.21910 (signal peptide predicted in full-length product)
The series can be described thus: p-nitrophenol release, Lineweaver-Burk. Format: biochemical, Pecoramyces ruminantium. Particulars: pH 6.0, sodium acetate buffer, 39 °C.
Excerpt: as §1

T1 sequence (A0A0U3AYH9 23-335 limits assumed): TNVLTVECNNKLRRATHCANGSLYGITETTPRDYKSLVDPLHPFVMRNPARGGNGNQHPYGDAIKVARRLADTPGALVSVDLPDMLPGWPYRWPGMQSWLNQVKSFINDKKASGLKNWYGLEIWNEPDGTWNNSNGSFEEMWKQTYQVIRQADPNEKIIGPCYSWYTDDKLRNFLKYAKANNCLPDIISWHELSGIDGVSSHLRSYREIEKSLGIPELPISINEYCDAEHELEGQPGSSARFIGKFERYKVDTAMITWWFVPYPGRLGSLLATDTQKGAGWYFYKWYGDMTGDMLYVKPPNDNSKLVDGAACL

A word on the Km: it is the concentration of substrate that gives half-maximal velocity. As to `O=[N+]([O-])c1ccc(O[C@@H]2O[C@H](CO)[C@@H](O)[C@H](O)[C@H]2O)cc1` [PNPG, p-nitrophenyl-β-D-glucopyranoside], the Km at Bgxg1 [1] is < 0.5 µM.
For `O=[N+]([O-])c1ccc(O[C@@H]2O[C@H](CO)[C@H](O)[C@H](O)[C@H]2O)cc1` [PNPGal, p-nitrophenyl-β-D-galactopyranoside], on Bgxg1 [1], the Km is < 0.5 µM.
On to `OC1OC[C@@H](O[C@@H]2OC[C@@H](O)[C@H](O)[C@H]2O)[C@H](O)[C@H]1O` (some centres unmarked) [xylobiose], for which, at Bgxg1 [2], the activity at 20000 µM turned out to be 57.2%.
Usually Vmax stands for the rate approached at saturating substrate. Turning to Bgxg1 (Pecoramyces ruminantium), in series [3], the Michaelis-Menten constant (Km) is 4.85 ± 0.62 µM and the Vmax amounted to 127 µmol/min/mg.
